The values below come from PMC2804029 (Journal of medicinal chemistry, 2010).

“Also recorded” adds a separate entry of the source.

Experiment [1] addresses T1, B. anthracis DHPS (Bacillus anthracis, UniProt Q81VW8). The format is binding.
The target in experiment [2] is T1, B. anthracis DHPS. Briefly: biochemical. In kind it is biochemical.

T1 sequence (Q81VW8 1-280): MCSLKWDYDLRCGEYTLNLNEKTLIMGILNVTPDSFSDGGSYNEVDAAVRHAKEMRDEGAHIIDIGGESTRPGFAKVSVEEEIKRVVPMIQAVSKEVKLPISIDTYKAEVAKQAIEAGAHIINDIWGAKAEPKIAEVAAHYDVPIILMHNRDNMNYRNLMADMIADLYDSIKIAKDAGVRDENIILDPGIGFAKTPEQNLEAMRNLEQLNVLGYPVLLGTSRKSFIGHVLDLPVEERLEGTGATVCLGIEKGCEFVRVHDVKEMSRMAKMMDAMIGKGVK

For `Nc1ccc(C(=O)O)cc1` [pABA, p-aminobenzoic acid], the “binding (heats of binding) by ITC” value in experiment [1] is given as “does not bind; also recorded: No heats of binding could be detected”.
A word on the IC50: it is the concentration needed to halve the response being measured. A higher IC50 goes with weaker potency. Usually inhibition stands for the change of the read-out against control, counted positive when it falls. The compound `Nc1nc2c(c(=O)[nH]1)N=C(CO)CN2` [Control, 6-hydroxymethyl-7,8-dihydropterin] displayed an IC50 in experiment [2] of 58.4 µM. In experiment [2] (read-out: B. anthracis % inhibition), the inhibition at 250 µM stood at 60%.
As for `Nc1nc2[nH]c(S)nc2c(=O)[nH]1` [Compound 5], the “percentage inhibition of DHPS” value in experiment [2] is on record as “did not show inhibition; also recorded: little or no inhibition”.
